Measured values from PMC8696185, “Purification and Characterization of Plantaricin YKX and Assessment of Its Inhibitory Activity Against Alicyclobacillus spp” (Frontiers in Microbiology, 2021).
Bridges are numbered along the chain shown (N, C = ends). Where no end group is shown, it is not given here. [ ]: non-standard residue; d: D form. Dhb = C/C=C(\N)C(=O)O; Dha = C=C(N)C(=O)O

Columns and labels:
[1] = test system: Aspergillus niger CICC 2124; test: Minimal inhibitory concentration (MIC); format: cell-based; conditions: twofold serial dilution, 96-well plate, 24 h at 30°C, OD600; highest conc. not given in μg/mL (stock 1,024 IU/mL)
Protocol: (§1) The minimal inhibitory concentration (MIC) of plantaricin YKX toward indicator strains was measured according to the [Clinical and Laboratory Standards Institute (2012)]. Indicator strains in the mid-logarithmic growth phase were adjusted to the OD600 of 0.5 and diluted 100-fold with appropriate media. First, the plantaricin YKX solution (1,024 IU/mL) was twofold serially diluted with distilled water. Next, 100 μL each indicator strain suspension and aliquots of plantaricin YKX solution were incubated [1:1 (v/v) ratio] in a 96-well plate for 24 h at 45°C with Alicyclobacillus spp. as indicator strain and at 30°C for other indicator strains listed in Table 1. The efficacy of nisin (> 90% pure, J & K Chemical Technology) was also determined. As a control, distilled water was added to the indicator strains suspensions. Following incubation, the MICs were determined by measuring the OD600 using a microplate reader (SpectraMax 190, Molecular Devices, CA, United States).

[2] = test system: Candida albicans CICC 1965; test: Minimal inhibitory concentration (MIC); format: cell-based; conditions: twofold serial dilution, 96-well plate, 24 h at 30°C, OD600; highest conc. not given in μg/mL (stock 1,024 IU/mL)
Protocol: as §1

[3] = test system: Enterobacter cloacae CICC 21539; test: Minimal inhibitory concentration (MIC); format: cell-based; conditions: twofold serial dilution, 96-well plate, 24 h at 30°C, OD600; highest conc. not given in μg/mL (stock 1,024 IU/mL)
Protocol: as §1

[4] = test system: Pseudomonas aeruginosa CICC 21636; test: Minimal inhibitory concentration (MIC); format: cell-based; conditions: twofold serial dilution, 96-well plate, 24 h at 30°C, OD600; highest conc. not given in μg/mL (stock 1,024 IU/mL)
Protocol: as §1

[5] = test system: Saccharomyces cerevisiae CICC 1002; test: Minimal inhibitory concentration (MIC); format: cell-based; conditions: twofold serial dilution, 96-well plate, 24 h at 30°C, OD600; highest conc. not given in μg/mL (stock 1,024 IU/mL)
Protocol: as §1

[6] = test system: Salmonella paratyphi β CICC 10437; test: Minimal inhibitory concentration (MIC); format: cell-based; conditions: twofold serial dilution, 96-well plate, 24 h at 30°C, OD600; highest conc. not given in μg/mL (stock 1,024 IU/mL)
Protocol: as §1

[7] = test system: A. acidoterrestris DSM3922 as indicator stain; test: Effect of enzymes on antibacterial activity (stability); format: in vitro ADME, Alicyclobacillus acidoterrestris; parameters: key to Antibacterial ability after Lipase, α-AMYLASE / Antibacterial ability after Trypsin, pepsin: Antimicrobial activity +: there is a clear inhibition zone.; Antimicrobial activity –: there is no inhibition zone; key to Antibacterial ability after Proteinase K, papain, α-chymotrypsin: −: Antimicrobial activity –: there is no inhibition zone; conditions: enzyme 1.0 mg/mL, 37°C for 30 min, agar well diffusion
Protocol: (§2) The effect of temperature (60, 80, or 100°C) on the activity of purified plantaricin YKX was analyzed within a certain time (10, 20, or 30 min) ([An et al., 2017]). The long-term stability was investigated at 37°C for […] and at 4°C for 3 months ([Yue et al., 2013]). The impact of pH on plantaricin YKX was analyzed by adjusting pH to 2–10 with 1 M HCl and 1 M NaOH solutions and determining residual activities after maintaining at 37°C for 2 h ([Yue et al., 2013]). The effect of enzymes on the antibacterial activity of plantaricin YKX was determined following incubation with enzymes lipase [pH 7.0, 10 mM phosphate-buffered saline (PBS)], α-amylase (pH 7.0, 10 mM PBS), trypsin (pH 7.5, 10 mM PBS), proteinase K (pH 7.5, 50 mM Tris-HCl), papain (pH 7.5, 10 mM PBS), and pepsin (pH 3.0, 0.1 M HCl) at 37°C for 30 min with their optimal pH and a final concentration of 1.0 mg/mL. The enzymes were inactivated by heating at 100°C for 5 min, and the pH was then adjusted to pH 6.0 ([Yue et al., 2013]). Plantaricin YKX without any treatments was employed as a control. Agar well diffusion assay was utilized to determine the antibacterial activity ([Pei et al., 2020]).

[8] = test system: E. coli CICC10302 as indicator stain; test: as above; format: in vitro ADME, Escherichia coli; parameters: key to Antibacterial ability after Lipase, α-AMYLASE / Antibacterial ability after Trypsin, pepsin: Antimicrobial activity +: there is a clear inhibition zone.; Antimicrobial activity –: there is no inhibition zone; key to Antibacterial ability after Proteinase K, papain, α-chymotrypsin: −: Antimicrobial activity –: there is no inhibition zone; conditions: enzyme 1.0 mg/mL, 37°C for 30 min, agar well diffusion
Protocol: as §2

[9] = test system: A. acidoterrestris DSM3922 as indicator stain; test: Heat, storage and pH stability, residual antibacterial activity; format: physicochemical, Alicyclobacillus acidoterrestris; parameters: key to Antibacterial ability after pH 2–7 / Antibacterial ability after 60, 80, and 100°C / Antibacterial ability after 37°C for 14 d / Antibacterial ability after 2 months at 4°C: Antimicrobial activity +: there is a clear inhibition zone.; Antimicrobial activity –: there is no inhibition zone; key to Antibacterial ability after pH 9–10: −: Antimicrobial activity –: there is no inhibition zone; conditions: agar well diffusion
Protocol: as §2

[10] = test system: E. coli CICC10302 as indicator stain; test: as above; format: physicochemical, Escherichia coli; parameters: key to Antibacterial ability after pH 2–7 / Antibacterial ability after 60, 80, and 100°C / Antibacterial ability after 37°C for 14 d / Antibacterial ability after 2 months at 4°C: Antimicrobial activity +: there is a clear inhibition zone.; Antimicrobial activity –: there is no inhibition zone; key to Antibacterial ability after pH 9–10: −: Antimicrobial activity –: there is no inhibition zone; conditions: agar well diffusion
Protocol: as §2

[11] = Heat, storage and pH stability (indicator not given); format: physicochemical
Protocol: as §2

[12] = test system: A. acidoterrestris ATCC 3922; test: Kill kinetics (time-killing curves); format: cell-based, Alicyclobacillus acidoterrestris; conditions: for Time within which all cells were inactivated: at the MICs (1 × MIC)
Text: FIGURE 3 Antibacterial activity of plantaricin YKX against A. acidoterrestris.

[13] = test system: A. acidoterrestris DSM3922 cells; test: Flow cytometry, propidium iodide uptake (membrane integrity); format: cell-based, Alicyclobacillus acidoterrestris; conditions: 2 × MIC, incubation for 30 min, 45°C, propidium iodide 10 μg/mL
Protocol: Log phase A. acidoterrestris DSM3922 cells were incubated with plantaricin YKX at 0.5×, 1×, or 2× MIC (control: cells treated with PBS) at 45°C for 15 min. Next, they were centrifuged, rinsed, and treated with propidium iodide (10 μg/mL) for 15 min at 45°C ([Gut et al., 2011]). After removing the unbound stain, the fluorescence intensities were analyzed by an AccuriC6 flow cytometer (BD Biosciences, MI, United States). Forty thousand events were acquired per sample and detected at excitation (488 nm) and emission wavelengths (525 nm).

[14] = test system: A. acidoterrestris DSM3922 endospores; test: Endospore germination, microscopic counting; format: cell-based, Alicyclobacillus acidoterrestris; conditions: 2 h post-germination treatment, untreated 43.6%
[15] = test system: A. acidoterrestris DSM3922; test: Guaiacol production, HPLC; format: cell-based, Alicyclobacillus acidoterrestris; conditions: AAM broth, 45°C, HPLC 275 nm, control 20.6 μg/L
Protocol: A. acidoterrestris DSM3922 was inoculated in AAM broth containing plantaricin YKX at 0.5 ×, 0.7 × or 0.9 × MIC (control without plantaricin YKX) and cultured at 45°C. Samples were tested for OD600 after 24 h. After the samples were centrifuged at 8,000 g at 4°C and passed through 0.22 μm filter membrane, the guaiacol content was determined with an analytical HPLC dual pump Shimadzu LC-20 AB system equipped with UltimateXB-C18 column (4.6 × 250 mm, particle size 5 μm, Kyoto, Japan) ([Lin et al., 2006]). The mobile phase was 30% (v/v) acetonitrile in 0.1% (v/v) formic acid. The column temperature was maintained at 40°C. The mobile phase flow rate was set at 1 mL/min. The detection wavelength was 275 nm.

[16] = test system: luxS gene of A. acidoterrestris; test: RT-qPCR, transcription of luxS; format: cell-based, Alicyclobacillus acidoterrestris; conditions: co-cultured at 0.5 × MIC, 0.7 × MIC, and 0.9 × MIC, overnight incubation
Protocol: To verify the effect of plantaricin YKX on the QS system, Real-Time Quantitative PCR (RT-qPCR) was used to detect the transcription level changes of the gene (luxS) encoding a QS signal (Al-2) synthesis enzyme (LuxS) in A. acidoterrestris. The mid-logarithmic phase cells of A. acidoterrestris were treated with plantaricin YKX at 0.5 ×, 0.7 ×, or 0.9 × MIC. After overnight incubation, RNA was extracted according to the Trizol method.
The reverse transcription reaction system (10 μL) contained: Total RNA 2 μL; dNTP 0.5 μL; Random primers 0.5 μL; and distilled water without RNAase 4 μL. All samples were maintained at 70°C for 5 min and then kept immediately in an ice bath. 5X reverse transcription buffer 2 μL, RNAase inhibitor 0.5 μL, and MMLV reverse transcription enzyme 0.5 μL were added immediately. Thus, the reverse transcription conditions were: 30°C for 10 min, 42°C for 1 h, 70°C for 15 min, and 4°C forever. After the reverse transcription reaction, the DNA templates were diluted 5 times and stored at −20°C until used.
PCR reaction included: upstream primer (10 μM) 0.2 μL, downstream primer (10 μM) 0.2 μL, 2 × Ultra SYBR Mixture 5 μL, ddH2O 3.6 μL, DNA templates 1 μL. The PCR reaction parameters were: 95°C for 10 min, 95°C for 15 s, 60°C for 1 min, 40 cycles. Primers (5′-[…]-3′; 5′-[…]-3′) were designed according to the gene sequence of luxS by the Primer 5.0 software.

[17] = test system: Clostridium butyricum CICC 10350; conditions: CICC 10350, 24 h
Alicyclobacillus spp. = conditions: literature value; ref Yamazaki et al., 2000; cited from earlier work
Protocol: On the other hand, the MICs of plantaricin YKX and nisin inactivated all cells within 180 min.

[18] = optimal pH (proteinase K pH 7.5 Tris-HCl, papain pH 7.5 PBS)
[19] = pH 7.0, 10 mM PBS, enzyme inactivated 100°C 5 min, pH adjusted to 6.0
[20] = trypsin pH 7.5 10 mM PBS, pepsin pH 3.0 0.1 M HCl
[21] = pH adjusted with 1 M HCl / 1 M NaOH, 37°C for 2 h

Substance: KYGNGLSRIFSALK [plantaricin YKX]
- MICs [1]: > highest conc. tested
- MICs [2]: > highest conc. tested
- MICs [3]: > highest conc. tested
- MICs [4]: > highest conc. tested
- MICs [5]: > highest conc. tested
- MICs [6]: > highest conc. tested
- Antibacterial ability after Proteinase K, papain, α-chymotrypsin [7, 18]: –
- Antibacterial ability after Lipase, α-AMYLASE [7, 19]: +
- Antibacterial ability after Trypsin, pepsin [7, 20]: +
- Antibacterial ability after Proteinase K, papain, α-chymotrypsin [8, 18]: –
- Antibacterial ability after Lipase, α-AMYLASE [8, 19]: +
- Antibacterial ability after Trypsin, pepsin [8, 20]: +
- Antibacterial ability after 60, 80, and 100°C ([9]; heated for 10, 20, or 30 min): +
- Antibacterial ability after 2 months at 4°C ([9]; long-term storage): +
- Antibacterial ability after 37°C for 14 d ([9]; long-term storage): +
- Antibacterial ability after pH 2–7 [9, 21]: +
- Antibacterial ability after pH 9–10 [9, 21]: –
- Antibacterial ability after 60, 80, and 100°C ([10]; heated for 10, 20, or 30 min): +
- Antibacterial ability after 2 months at 4°C ([10]; long-term storage): +
- Antibacterial ability after 37°C for 14 d ([10]; long-term storage): +
- Antibacterial ability after pH 2–7 [10, 21]: +
- Antibacterial ability after pH 9–10 [10, 21]: –
- Antibacterial activity after storage ([11]; 3 months at 4°C, agar well diffusion): did not alter its antibacterial activity
- pH at which the activity was lost ([11]; 37°C for 2 h at adjusted pH, residual activity by agar well diffusion): 9.0
- Antibacterial activity after storage ([11]; 37°C for up to 14 days, agar well diffusion): did not alter its antibacterial activity
- pH range in which active (abstract) ([11]; as stated in the abstract): 3–8
- Heat stability, activity after heating ([11]; heating at 60, 80, or 100°C (10, 20, or 30 min), agar well diffusion): retaining activity
- Time within which the number of cells was substantially decreased ([12]; 2 MIC): ≤ 30 min
- Time within which all cells were inactivated [12]: ≤ 180 min
- Proportion of PI-stained cells [13]: 91.6%
- Germination rate of spores ([14]; 0.5 × MIC): 55.4%
- Germination rate of spores ([14]; 0.7 × MIC): 70.5%
- Germination rate of spores ([14]; 0.9 × MIC): 81.7%
- Production of guaiacol ([15]; 0.5 × MIC): 16.8 µg/L
- Production of guaiacol ([15]; 0.7 × MIC): 10.1 µg/L
- Production of guaiacol ([15]; 0.9 × MIC): 8.9 µg/L
- Expression of the luxS gene [16]: increased significantly
- MICs [17]: 32 µg/mL

Substance: nisin: typical class I (lanthionine-based) bacteriocin, > 90% pure, J & K Chemical Technology (I[Dhb]SI[Dha]LCTPGCKTGALMGCNMKTATCHCSIHV[Dha]K; bridge 23-26, 13-19, 8-11, 25-28, 3-7; not fully specified (residues 3, 8, 13, 23, 25, bridges); UniProt P13068 24-57, looked up) [reference compound]
- Time within which all cells were inactivated [12]: ≤ 180 min
- Expression of the luxS gene [16]: did not show a similar function
- MIC (Alicyclobacillus spp.): 16 to 32 µg/mL
